Data on 16 compounds can be found in patent US20240067651A1 (Biohaven Therapeutics Ltd., priority 2019, published 2024).

A short description of series [1]: Stability in Simulated Gastric Fluid (SGF). It is filed as in vitro ADME. Also on record: key: % parent compound remaining relative to 0-minute sample. In a few lines: (§1)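 Percent parent compound remaining, by LC-MS/MS against the 0-minute sample, is reported after incubation at 2 μg/mL (final) in pepsin-containing SGF at pH 1.2 or pancreatin-containing SIF at pH 6.8. Incubations run at 37° C for up to 60 minutes.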

The nature of the next series: Plasma Stability. The series is classed as in vitro ADME, human. The gist of the method:
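Compounds incubated at 1 μM in fresh human plasma for 1 hour at 37° C, then protein-precipitated with acetonitrile/formic acid containing internal standard. Remaining parent measured by LC-MS/MS in triplicate, expressed as percent of control remaining.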

For a further series, the system named is Caco-2 monolayer. Briefly: Caco-2 Permeability Assay. It is filed as in vitro ADME, human. The gist of the method: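 Caco-2 monolayers cultured 21 days (TEER >600 […]); test article at 10 μM in HBSS/HEPES pH 7.4 transport medium, dosed apical or basolateral, ±Pgp inhibitor. Incubated 90 min at 37 °C; both compartments quantified by LC-MS/MS. Papp (A→B, B→A), efflux ratio and % recovery calculated.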
For orientation: Caco-2 cells form a polarised layer with tight junctions and transporters.

Series [2] can be described thus: Stability in Simulated Intestinal Fluid (SIF). The series is classed as in vitro ADME. Also on record: key: % parent compound remaining relative to 0-minute sample. In a few lines:
as §1

Where [3] appears, read: simulated gastric fluid, remaining at 1 h.
The mark [4] stands for this setting: simulated intestinal fluid, remaining at 1 h.
Setting [5] is: % remaining at 1 h in simulated gastric fluid.
The mark [6] stands for this setting: % remaining at 1 h in human plasma.
[7] abbreviates: % remaining at 1 h in simulated intestinal fluid.
The mark [8] stands for this setting: % remaining after 1 h in simulated gastric fluid.
Setting [9] is: % remaining after 1 h in human plasma.
[10] abbreviates: % remaining after 1 h in simulated intestinal fluid.

Consider `CC(C)OCCn1c(=S)n(COC(=O)CCCOC(=O)[C@H](N)C(C)C)c(=O)c2c1ccn2COC(=O)CCCOC(=O)[C@H](N)C(C)C.O=C(O)C(F)(F)F.O=C(O)C(F)(F)F` [Example 360, bis(trifluoroacetic acid) 4-[(3-{[(4-{[(2R)-2-amino-3-methylbutanoyl]oxy}buta-noyl)oxy]methyl}-4-oxo-1-[2-(propan-2-yloxy)ethyl]-2-sulfanylidene-1H,2H,3H,4H,5H-pyrrolo[3,2-d]pyrimidin-5-yl)methoxy]-4-oxobutyl (2R)-2-amino-3-methylbutanoate], for which the SGF in series [1] (setting [3]) is given as 46% remaining. Moreover, the “human Plasma stability” value in “Plasma Stability” (human plasma, remaining at 1 h) stood at 3% remaining. Further, the “Caco-2 Papp” value in the series on Caco-2 monolayer (Caco-2 monolayer) was less than 0.628 ×10⁻⁶ cm/s. Further, the SIF in series [2] (setting [4]) was 56% remaining.

As to “5-{[2-({[(5-{[(2R)-2-{[(tert-butoxy)carbonyl]amino}-4-methylpentanoyl]oxy}penta-noyl)oxy]methyl}sulfanyl)-4-oxo-1-[2-(propan-2-yloxy)ethyl]-1H,4H,5H-pyrrolo[3,2-d]pyrimidin-5-yl]methoxy}-5-oxopentyl (2R)-2-{[(tert-butoxy)carbonyl]amino}-4-methylpentanoate [Example 348]”, the SGF in series [1] (setting [3]) is recorded as 88% remaining. The “human Plasma stability” value in “Plasma Stability” (human plasma, remaining at 1 h) was 33% remaining. Also, the “Caco-2 Papp” value in the series with Caco-2 monolayer (Caco-2 monolayer) was less than 0.0965 ×10⁻⁶ cm/s. Further, the SIF in series [2] (setting [4]) was 20% remaining.

`CC(C)C[C@@H](NC(=O)OC(C)(C)C)C(=O)OCCCCC(=O)OCn1c(=O)c2c(ccn2COC(=O)CCCCOC(=O)[C@@H](CC(C)C)NC(=O)OC(C)(C)C)n(CCOC(C)C)c1=S` [Example 349, 5-[(3-{[(5-{[(2R)-2-{[(tert-butoxy)carbonyl]amino}-4-methylpentanoyl]oxy}penta-noyl)oxy]methyl}-4-oxo-1-[2-(propan-2-yloxy)ethyl]-2-sulfanylidene-1H,2H,3H,4H,5H-pyrrolo[3,2-d]pyrimidin-5-yl)methoxy]-5-oxopentyl (2R)-2-{[(tert-butoxy)carbonyl]amino}-4-methylpentanoate]: the SGF in series [1] (setting [3]) is reported as 99% remaining. Further, the “human Plasma stability” value in the series “Plasma Stability” (human plasma, remaining at 1 h) worked out at 6% remaining. In addition, the “Caco-2 Papp” value in the series on Caco-2 monolayer (Caco-2 monolayer) worked out at 4.99 ×10⁻⁶ cm/s. Besides, in series [2] (setting [4]), the SIF was 8% remaining.

Regarding `CC(C)OCCn1c(=S)[nH]c(=O)c2c1ccn2COC(=O)CCNC(=O)[C@@H]1CCC(=O)N1C(=O)OCc1ccccc1.O=C(O)C(F)(F)F` [Example 17, trifluoroacetic acid benzyl (5S)-2-oxo-5-{[3-oxo-3-({4-oxo-1-[2-(propan-2-yloxy)ethyl]-2-sulfanylidene-1H,2H,3H,4H,5H-pyrrolo[3,2-d]pyrimidin-5-yl}methoxy)propyl]carbamoyl} pyrrolidine-1-carboxylate], in series [1] (setting [5]), the SGF is listed as 99% remaining. In addition, in the series “Plasma Stability” (setting [6]), the “human Plasma stability” value is 38% remaining. Further, the “Caco-2 Papp” value with Caco-2 monolayer (Caco-2 monolayer) is 0.368 ×10⁻⁶ cm/s. Besides, in series [2] (setting [7]), the SIF is 3% remaining.

In the case of “{4-oxo-1-[2-(propan-2-yloxy)ethyl]-2-sulfanylidene-1H,2H,3H,4H,5H-pyrrolo[3,2-d]pyrimidin-5-yl}methyl 2-[2-(acetyloxy)-N-methylacetamido]acetate [Example 400]”, the SGF in series [1] (setting [8]) is given as 99% remaining. The “human Plasma stability” value in “Plasma Stability” (setting [9]) was 89% remaining. The “Caco-2 Papp” value with Caco-2 monolayer (Caco-2 monolayer) turned out to be 0.242 ×10⁻⁶ cm/s. The SIF in series [2] (setting [10]) is listed as 26% remaining.

Regarding “(2R)-2-amino-4-(methylsulfanyl)-N-[2-(2-{[{{4-oxo-1-[2-(propan-2-yloxy)ethyl]-2-sulfanylidene-1H,2H,3H,4H,5H-pyrrolo[3,2-d]pyrimidin-5-yl}methoxy)carbonyl]oxy}ethoxy)eth-yl]butanamide; trifluoroacetic acid [Example 390]”, the SGF in series [1] (setting [3]) is 100% remaining. Besides, the “human Plasma stability” value in the series “Plasma Stability” (human plasma, remaining at 1 h) is given as 0% remaining. The “Caco-2 Papp” value with Caco-2 monolayer (Caco-2 monolayer) worked out at 0.49 ×10⁻⁶ cm/s. The SIF in series [2] (setting [4]) is listed as 64% remaining.

On to “trifluoroacetic acid {4-oxo-1-[2-(propan-2-yloxy)ethyl]-2-sulfanylidene-1H,2H,3H,4H,5H-pyrrolo[3,2-d]pyrimidin-5-yl}methyl N-[2-(2-aminoethoxy)ethyl]carbamate [Example 373]”, for which the SGF in series [1] (setting [3]) is recorded as 90% remaining. Further, the “human Plasma stability” value in “Plasma Stability” (human plasma, remaining at 1 h) amounted to 68% remaining. Further, the “Caco-2 Papp” value in the series with Caco-2 monolayer (Caco-2 monolayer) is 0.123 ×10⁻⁶ cm/s. The SIF in series [2] (setting [4]) was 72% remaining.

For `CC(C)OCCn1c(SCOC(=O)N(C)CCOCCNC(=O)[C@H](N)C(C)C)nc(=O)c2[nH]ccc21.O=C(O)C(F)(F)F` [Example 391, trifluoroacetic acid ({4-oxo-1-[2-(propan-2-yloxy)ethyl]-1H,4H,5H-pyrrolo[3,2-d]pyrimidin-2-yl}sulfanyl) methyl N-(2-{2-[(2R)-2-amino-3-methylbutanamido]ethoxy}ethyl)-N-methylcarbamate], in series [1] (setting [3]), the SGF was 96% remaining. In addition, in “Plasma Stability” (human plasma, remaining at 1 h), the “human Plasma stability” value was determined as 1% remaining. Moreover, the “Caco-2 Papp” value in the series on Caco-2 monolayer (Caco-2 monolayer) came out at 3.65 ×10⁻⁶ cm/s. The SIF in series [2] (setting [4]) was 70% remaining.

For the compound “tert-butyl N-[2-(2-{[{{4-oxo-1-[2-(propan-2-yloxy)ethyl]-2-sulfanylidene-1H,2H,3H,4H,5H-pyrrolo[3,2-d]pyrimidin-5-yl}methoxy)carbonyl]amino}ethoxy) ethyl]carbamate [Example 372]”, the SGF in series [1] (setting [3]) is on record as 85% remaining. Further, the “human Plasma stability” value in “Plasma Stability” (human plasma, remaining at 1 h) is given as 0% remaining. In addition, in the series with Caco-2 monolayer (Caco-2 monolayer), the “Caco-2 Papp” value was 11.7 ×10⁻⁶ cm/s. In addition, the SIF in series [2] (setting [4]) is 60% remaining.

Take `CC(C)OCCn1c(=S)n(COC(=O)OCCOCCOC(N)=O)c(=O)c2[nH]ccc21` [Example 403, 3-{[{{2-[2-(carbamoyloxy)ethoxy]ethoxy}car-bonyl)oxy]methyl}-1-[2-(propan-2-yloxy)ethyl]-2-sulfanylidene-1H,2H,3H,4H,5H-pyrrolo[3,2-d]pyrimidin-4-one]: the SGF in series [1] (setting [8]) is on record as 98% remaining. The “human Plasma stability” value in the series “Plasma Stability” (setting [9]) is 0% remaining. In the series on Caco-2 monolayer (Caco-2 monolayer), the “Caco-2 Papp” value is 0.477 ×10⁻⁶ cm/s. The SIF in series [2] (setting [10]) is 54% remaining.

In the case of “bis (trifluoroacetic acid) 5-{[2-({[(5-{[(2S)-2-amino-4-methylpentanoyl]oxy}penta-noyl)oxy]methyl}sulfanyl)-4-oxo-1-[2-(propan-2-yloxy)ethyl]-1H,4H,5H-pyrrolo[3,2-d]pyrimidin-5-yl]methoxy}-5-oxopentyl (2S)-2-amino-4-methylpentanoate [Example 346]”, the SGF in series [1] (% remaining @ 1 h) is 97% remaining. The “human Plasma stability” value in the series “Plasma Stability” (% remaining @ 1 h) came out at 98% remaining. Besides, the “Caco-2 Papp” value in the series with Caco-2 monolayer (Caco-2) was less than 0.0623 ×10⁻⁶ cm/s. Also, in series [2] (% remaining @ 1 h), the SIF was 7% remaining.

As for “trifluoroacetic acid ({4-oxo-1-[2-(propan-2-yloxy)ethyl]-1H,4H,5H-pyrrolo[3,2-d]pyrimidin-2-yl}sulfanyl)methyl N-[2-(2-aminoethoxy)ethyl]carbamate [Example 374]”, the SGF in series [1] (setting [3]) is on record as 75% remaining. Further, the “human Plasma stability” value in “Plasma Stability” (human plasma, remaining at 1 h) was determined as 82% remaining. Besides, the “Caco-2 Papp” value in the series with Caco-2 monolayer (Caco-2 monolayer) came out at 9.06 ×10⁻⁶ cm/s. Also, in series [2] (setting [4]), the SIF is reported as 94% remaining.

For the compound `CC(C)OCCn1c(SCOC(=O)CCCOC(=O)[C@H](NC(=O)OC(C)(C)C)C(C)C)nc(=O)c2c1ccn2COC(=O)CCCOC(=O)[C@H](NC(=O)OC(C)(C)C)C(C)C` [Example 357, 4-{[2-({[(4-{[(2R)-2-{[(tert-butoxy)carbonyl]amino}-3-methylbutanoyl]oxy}buta-noyl)oxy]methyl}sulfanyl)-4-oxo-1-[2-(propan-2-yloxy)ethyl]-1H,4H,5H-pyrrolo[3,2-d]pyrimidin-5-yl]methoxy}-4-oxobutyl (2R)-2-{[(tert-butoxy)carbonyl]amino}-3-methylbutanoate], the SGF in series [1] (setting [3]) is reported as 98% remaining. In addition, in the series “Plasma Stability” (human plasma, remaining at 1 h), the “human Plasma stability” value was found to be 5% remaining. The “Caco-2 Papp” value in the series with Caco-2 monolayer (Caco-2 monolayer) was determined as 1.5 ×10⁻⁶ cm/s. Also, in series [2] (setting [4]), the SIF is given as 14% remaining.

Regarding `CC(C)OCCn1c(=S)[nH]c(=O)c2c1ccn2COC(=O)[C@@H]1CCN(C(=O)OC(C)(C)C)C1` [Example 129, 1-tert-butyl 3-{4-oxo-1-[2-(propan-2-yloxy)ethyl]-2-sulfanylidene-1H,2H,3H,4H,5H-pyrrolo[3,2-d]pyrimidin-5-yl} methyl (3R)-pyrrolidine-1,3-dicarboxylate], the SGF in series [1] (setting [5]) is 84% remaining. Also, the “human Plasma stability” value in the series “Plasma Stability” (setting [6]) is given as 1% remaining. For the same compound, the “Caco-2 Papp” value in the series on Caco-2 monolayer (Caco-2 monolayer) worked out at 12.1 ×10⁻⁶ cm/s. Further, the SIF in series [2] (setting [7]) is recorded as 21% remaining.

Take “tert-butyl N-[2-(2-{[(1-{4-oxo-1-[2-(propan-2-yloxy)ethyl]-2-sulfanylidene-1H,2H,3H,4H,5H-pyrrolo[3,2-d]pyrimidin-5-yl}ethoxy)carbonyl]amino}eth-oxy)ethyl]carbamate [Example 375]”: the SGF in series [1] (setting [3]) is 89% remaining. Further, the “human Plasma stability” value in “Plasma Stability” (human plasma, remaining at 1 h) was found to be 99% remaining. Besides, the “Caco-2 Papp” value with Caco-2 monolayer (Caco-2 monolayer) is less than 0.175 ×10⁻⁶ cm/s. Also, the SIF in series [2] (setting [4]) is on record as 99% remaining.

Take “(2R)-2-amino-N-[2-(2-{[{{4-oxo-1-[2-(propan-2-yloxy)ethyl]-2-sulfanylidene-1H,2H,3H,4H,5H-pyrrolo[3,2-d]pyrimidin-5-yl}methoxy)carbonyl]oxy}ethoxy)eth-yl]-3-phenylpropanamide; trifluoroacetic acid [Example 388]”: the SGF in series [1] (setting [3]) is on record as 97% remaining. In addition, the “human Plasma stability” value in “Plasma Stability” (human plasma, remaining at 1 h) is 1% remaining. In addition, the “Caco-2 Papp” value with Caco-2 monolayer (Caco-2 monolayer) was less than 1.99 ×10⁻⁶ cm/s. In series [2] (setting [4]), the SIF is 73% remaining.
